According to patent US20220046923A1, “HERBICIDAL CINNOLINIUM COMPOUNDS” (SYNGENTA CROP PROTECTION AG, priority 2018, published 2022):

Tests used:
Assay in all cases: Post-emergence efficacy, glasshouse spray test
Assay type in all cases: in vivo
Eleusine indica (ELEIN) = settings: Eleusine indica, post-emergence, 312 h, evaluated after 13 days, read-out: Control of weed species ELEIN after post-emergence application (100=total damage to plant; 0=no damage to plant); for pest or weed control at 1000 g/ha: application rate 1000 g/Ha; for pest or weed control at 500 g/ha: application rate 500 g/Ha
Description: (§1) Seeds of a variety of test species were sown in standard soil in pots. After cultivation for 14 days (post-emergence) under controlled conditions in a glasshouse (at 24/16° C., day/night; 14 hours light; 65% humidity), the plants were sprayed with an aqueous spray solution derived from the dissolution of the technical active ingredient formula (I) in a small amount of acetone and a special solvent and emulsifier mixture referred to as IF50 (11.12% Emulsogen EL360 TM+44.44% N-methylpyrrolidone+44.44% Dowanol DPM glycol ether), to create a 50 g/l solution which was then diluted to required concentration using 0.25% or 1% Empicol ESC70 (Sodium lauryl ether sulphate)+1% ammonium sulphate as diluent. The test plants were then grown in a glasshouse under controlled conditions (at 24/16° C., day/night; 14 hours light; 65% humidity) and watered twice daily. After 13 days the test was evaluated (100=total damage to plant; 0=no damage to plant).
(§2) Ipomoea hederacea (IPOHE), Euphorbia heterophylla (EPHHL), Chenopodium album (CHEAL), Amaranthus palmeri (AMAPA), Lolium perenne (LOLPE), Digitaria sanguinalis (DIGSA), Eleusine indica (ELEIN), Echinochloa crus-galli (ECHCG), Setaria faberi (SETFA)

[1] = tested on: Chenopodium album (CHEAL); settings: Chenopodium album, post-emergence, 312 h, evaluated after 13 days, read-out: Control of weed species CHEAL after post-emergence application (100=total damage to plant; 0=no damage to plant); for pest or weed control at 1000 g/ha: application rate 1000 g/Ha; for pest or weed control at 500 g/ha: application rate 500 g/Ha
Description: as §1, §2

[2] = tested on: Amaranthus palmeri (AMAPA); settings: Amaranthus palmeri, post-emergence, 312 h, evaluated after 13 days, read-out: Control of weed species AMAPA after post-emergence application (100=total damage to plant; 0=no damage to plant); for pest or weed control at 1000 g/ha: application rate 1000 g/Ha; for pest or weed control at 500 g/ha: application rate 500 g/Ha
Description: as §1, §2

[3] = tested on: Echinochloa crus-galli (ECHCG); settings: Echinochloa crus-galli, post-emergence, 312 h, evaluated after 13 days, read-out: Control of weed species ECHCG after post-emergence application (100=total damage to plant; 0=no damage to plant); for pest or weed control at 1000 g/ha: application rate 1000 g/Ha; for pest or weed control at 500 g/ha: application rate 500 g/Ha
Description: as §1, §2

Setaria faberi (SETFA) = settings: Setaria faberi, post-emergence, 312 h, evaluated after 13 days, read-out: Control of weed species SETFA after post-emergence application (100=total damage to plant; 0=no damage to plant); for pest or weed control at 1000 g/ha: application rate 1000 g/Ha; for pest or weed control at 500 g/ha: application rate 500 g/Ha
Description: as §1, §2

Lolium perenne (LOLPE) = settings: Lolium perenne, post-emergence, 312 h, evaluated after 13 days, read-out: Control of weed species LOLPE after post-emergence application (100=total damage to plant; 0=no damage to plant); for pest or weed control at 1000 g/ha: application rate 1000 g/Ha; for pest or weed control at 500 g/ha: application rate 500 g/Ha
Description: as §1, §2

[4] = tested on: Digitaria sanguinalis (DIGSA); settings: Digitaria sanguinalis, post-emergence, 312 h, evaluated after 13 days, read-out: Control of weed species DIGSA after post-emergence application (100=total damage to plant; 0=no damage to plant); for pest or weed control at 1000 g/ha: application rate 1000 g/Ha; for pest or weed control at 500 g/ha: application rate 500 g/Ha
Description: as §1, §2

[5] = tested on: Ipomoea hederacea (IPOHE); settings: Ipomoea hederacea, post-emergence, 312 h, evaluated after 13 days, read-out: Control of weed species IPOHE after post-emergence application (100=total damage to plant; 0=no damage to plant); for pest or weed control at 1000 g/ha: application rate 1000 g/Ha; for pest or weed control at 500 g/ha: application rate 500 g/Ha
Description: as §1, §2

[6] = tested on: Euphorbia heterophylla (EPHHL); settings: Euphorbia heterophylla, post-emergence, 312 h, evaluated after 13 days, read-out: Control of weed species EPHHL after post-emergence application (100=total damage to plant; 0=no damage to plant); for pest or weed control at 1000 g/ha: application rate 1000 g/Ha; for pest or weed control at 500 g/ha: application rate 500 g/Ha
Description: as §1, §2

| SMILES | pest or weed control at 1000 g/ha (Eleusine indica (ELEIN)) [%] | pest or weed control at 1000 g/ha [1] [%] | pest or weed control at 1000 g/ha [2] [%] | pest or weed control at 1000 g/ha [3] [%] | pest or weed control at 1000 g/ha (Setaria faberi (SETFA)) [%] | pest or weed control at 1000 g/ha (Lolium perenne (LOLPE)) [%] | pest or weed control at 1000 g/ha [4] [%] | pest or weed control at 1000 g/ha [5] [%] | pest or weed control at 1000 g/ha [6] [%] | pest or weed control at 500 g/ha (Eleusine indica (ELEIN)) [%] | pest or weed control at 500 g/ha [1] [%] | pest or weed control at 500 g/ha [2] [%] | pest or weed control at 500 g/ha [3] [%] | pest or weed control at 500 g/ha (Setaria faberi (SETFA)) [%] | pest or weed control at 500 g/ha (Lolium perenne (LOLPE)) [%] | pest or weed control at 500 g/ha [4] [%] | pest or weed control at 500 g/ha [5] [%] | pest or weed control at 500 g/ha [6] [%] |
| --- | --- | --- | --- | --- | --- | --- | --- | --- | --- | --- | --- | --- | --- | --- | --- | --- | --- | --- |
| N[C@H](CC[n+]1ccc2ccccc2n1)C(=O)O [Compound A12, [(1R)-1-carboxy-3-cinnolin-2-ium-2-yl-propyl]ammonium 2,2,2-trifluoroacetate] | 90 | 70 | 80 | 40 | 50 | 40 | 80 | 60 | 50 |  |  |  |  |  |  |  |  |  |
| COC(=O)c1ccc2cc[n+](CCS(=O)(=O)[O-])nc2c1 [Compound A108] |  |  |  |  |  |  |  |  |  | 30 | 40 | 20 | 20 | 10 | 10 | 70 | 10 | 50 |
| O=S(=O)([O-])CC[n+]1ccc2cccc(C(F)(F)F)c2n1 [Compound A95] | 10 | 50 | 40 | 10 | 10 | 0 | 10 | 10 | 50 |  |  |  |  |  |  |  |  |  |
| O=C(NC(C[n+]1ccc2ccccc2n1)C(=O)O)OCc1ccccc1 (stereo not drawn) [Compound A114] |  |  |  |  |  |  |  |  |  | 30 | 40 | 50 | 20 | 20 | 10 | 20 | 30 | 50 |
| N[C@@H](C[n+]1ccc2ccccc2n1)C(=O)[O-] [Compound A23, (2S)-2-amino-3-cinnolin-2-ium-2-yl-propanoic Acid 2,2,2-trifluoroacetate] | 20 | 30 | 60 | 30 | 40 | 10 | 40 | 20 | 30 |  |  |  |  |  |  |  |  |  |
| COC(=O)C[n+]1cc(C)c2cc(C)cc(C)c2n1 [Compound A3] | 0 | 10 | 20 | 0 | 10 | 20 | 0 | 10 | 20 |  |  |  |  |  |  |  |  |  |
| Cc1c[n+](CC(=O)O)nc2ccccc12 [Compound A66] | 20 | 60 | 20 | 0 | 0 | 0 | 0 | 30 | 20 |  |  |  |  |  |  |  |  |  |
| O=S(=O)([O-])NCC[n+]1ccc2ccccc2n1 [Compound A41] | 100 | 100 | 100 | 30 | 90 | 70 | 80 | 80 | 100 |  |  |  |  |  |  |  |  |  |
| C[C@@H](CNS(=O)(=O)[O-])[n+]1ccc2ccccc2n1 [Compound A50] |  |  |  |  |  |  |  |  |  | 20 | 70 | 80 | 20 | 20 | 20 | 30 | 40 | 60 |
| O=S(=O)([O-])CC[n+]1ccc2ccccc2n1 [Compound A24, 2-cinnolin-2-ium-2-ylethanesulfonate] | 80 | 60 | 60 | 40 | 60 | 40 | 80 | 80 | 70 |  |  |  |  |  |  |  |  |  |
| O=S(=O)([O-])CC[n+]1ccc2ccc(F)cc2n1 [Compound A83] | 80 | 100 | 100 | 40 | 50 | 50 | 50 | 60 | 100 |  |  |  |  |  |  |  |  |  |
| COC(=O)CC[n+]1ccc2ccccc2n1 [Compound A61] | 90 | 60 | 70 | 60 | 50 | 10 | 80 | 60 | 70 |  |  |  |  |  |  |  |  |  |
| O=S(=O)([O-])CCC[n+]1cc(C(Cl)Cl)c2ccccc2n1 [Compound A39, 3-[4-(dichloromethyl)cinnolin-2-ium-2-yl]propane-1-sulfonate] | 10 | 20 | 10 | 10 | 0 | 0 | 10 | 30 | 40 |  |  |  |  |  |  |  |  |  |
